Literature values in patent publication US7192914B1, “Prevention of atherosclerosis and undesired blood clotting by reducing von Willebrand factor” (The Regents of the University of California, priority 1999, dated 2007).

Tested on: human endothelial cells
Conditions: human endothelial cells treated with tunicamycin; Wagner et al. (1986) J. Cell Biol. 102: 1320-4

tunicamycin
effect on secreted vWF: absence of secreted vWF
